The structures appear in SMILES notation. Counter-ions that a name gives are not always drawn. Like-named read-outs stand apart in the source and are kept apart here. Where only a bound is given, the exact number is not on record here.

The values that follow come from US11643413B2, “9-(2-oxacycloalkyl)-9H-purine-2,6-diamine derivatives and their use for the treatment of skin disorders” (UNIVERZITA PALACKEHO V OLOMOUCI, priority 2017, dated 2023).

Series [1] relates to BJ (human foreskin fibroblasts).
Text: (§1) One of the parameters used, as the basis for cytotoxicity assays, is the metabolic activity of viable cells. For example, a microtiter assay, which uses the Calcein AM, is now widely used to quantitate cell proliferation and cytotoxicity. […] Because only metabolically active cells cleave Calcein AM, these assays detect viable cells exclusively. The quantity of reduced Calcein AM corresponds to the number of vital cells in the culture.
(§2) Mouse fibroblasts NIH3T3; mouse immortalized bone marrow macrophages B2.4 and B10A.4, and BJ (human foreskin fibroblasts) were used for routine screening of compounds. The cells were maintained in Nunc/Corning 80 cm^2 plastic tissue culture flasks and cultured in cell culture medium (DMEM with 5 g/l glucose, 2 mM glutamine, 100 U/ml penicillin, 100 μg/ml streptomycin, 10% fetal calf serum and sodium bicarbonate).
(§3) The cell suspensions that were prepared and diluted according to the particular cell type and the expected target cell density (2.500-30.000 cells per well based on cell growth characteristics) were added by pipette (80 μl) into 96/well microtiter plates. Inoculates were allowed a pre-incubation period of 24 hours at 37° C. and 5% CO2 for stabilisation. Four-fold dilutions of the intended test concentration were added at time zero in 20 μl aliquots to the microtiter plate wells. Usually, the compound tested was evaluated at six 4-fold dilutions. […] All compound concentrations were examined in duplicates. Incubations of cells with the tested compounds lasted for 72 hours at 37° C., in 5% CO2 atmosphere and 100% humidity. At the end of the incubation period, the cells were assayed by using Calcein AM. Ten microliters of the stock solution were pipetted into each well and incubated for 1 hour. Fluorescence (FD) was measured with the Labsystem FIA Reader Fluoroscan Ascent (UK).
Series [2] concerns B10A.4.
Text: as §1, §2, §3
Series [3] relates to B10A.4. The source holds these as a separate data set.
Text: as §1, §2, §3
Series [4] has as its system NIH-3T3.
Text: as §1, §2, §3
In a further series the test system is NIH3T3 fibroblasts. The experiment in a line: Peroxidation of membrane lipids, MDA by TBA method. It is filed as cell-based, mouse. Conditions: FW = fresh weight. Here is the method:
A typical symptom associated with aging is the direct consequence of increased concentrations of reactive oxygen species and lipid peroxidation. […] MDA levels were measured using thiobarbituric acid (TBA method). […] The crude extract was centrifuged at 10,000×g for 5 minutes and 100 μl aliquots of the supernatant were mixed with 100 μl of 0.5% (w/v) TBA containing 0.1% (w/v) trichloroacetic acid. The resulting solution was then incubated for 30 min at 95° C. The samples were rapidly cooled on ice and centrifuged for 5 minutes at 1000×g. […] The newly prepared derivatives of the general formula thus have a protective function against the negative effects of reactive oxygen species that accumulate strongly in the tissues.

Series [5] deals with BJ (human foreskin fibroblasts). The experiment in a line: Calcein AM cytotoxicity, BJ. As to conditions: read-out: Cytotoxicity IC50, BJ; 72 hours incubation, Calcein AM; highest concentration […].
Text: as §1, §2, §3
Series [6] deals with B10A.4. The series can be described thus: Calcein AM cytotoxicity, B10A.4 (first column). Conditions: read-out: Cytotoxicity IC50, B10A.4; 72 hours incubation, Calcein AM; highest concentration […].
Text: as §1, §2, §3
In series [7] the test system is NIH-3T3. The experiment in a line: Calcein AM cytotoxicity, NIH-3T3. As to conditions: read-out: Cytotoxicity IC50, NIH-3T3; 72 hours incubation, Calcein AM; highest concentration […].
Text: as §1, §2, §3
The test system of series [8] is B10A.4. The series can be described thus: Calcein AM cytotoxicity, B10A.4 (second column). As to conditions: read-out: Cytotoxicity IC50, B10A.4, 72 hours incubation, highest concentration […].
Text: as §1, §2, §3
Series [9] in a line: Radical scavenging activity determined by ORAC. As to conditions: relative to trolox; Mean ± SD (n = 3). As to the method:
The ability of compounds to scavenge free radicals in vitro was determined by Oxygen Radical Absorbance Capacity (ORAC) method. In brief, fluorescein (100 μl, […]) and 25 μl of compound solution were added into each working well in a 96-well microplate preincubated at 37° C. Thereafter, 25 μL of 250 mM AAPH was quickly added, microplate was shaken for 5 s and the fluorescence (Ex. 485 nm, Em. 510 nm) was read every 3 min over 90 min by using microplate reader Infinite 200 (TECAN, Switzerland). The net area under the curve was used to express antioxidant activity relative to trolox which was used as a standard.

The nature of series [10]: Calcein AM cytotoxicity, BJ. As to conditions: human, BJ foreskin fibroblasts.
Text: as §1, §2, §3
Series [11] is described as follows: Calcein AM cytotoxicity, B10A.4 (first column). As to conditions: mouse, B10A.4 immortalized bone marrow macrophages.
Text: as §1, §2, §3
Series [12] in a line: Calcein AM cytotoxicity, NIH-3T3. Conditions: mouse, NIH-3T3 fibroblasts.
Text: as §1, §2, §3
Series [13] deals with Rabbits (New Zealand Albino breed). As to conditions: New Zealand Albino, rabbit, in vivo, 4 h. As to the method: The test substance 114 was tested in Animal skin irritation test. Rabbits (New Zealand Albino breed) were used for the test. The test was performed according to ČSN EN ISO 10993 (Březen 2014): Biologické hodnoceni zdravotnických prostředků—část 10: Zkoušky dráždivosti a senzibilizace kůže, článek 6.3 Zkouška dráždivosti na zviřatech (Biological evaluation of medical devices—Part 10: Tests for irritation and delayed-type hypersensitivity). A dose 0.5 g of the test substance was applied to the skin of the back on each side of each rabbit. […] At first the one rabbit (test animal. No. 16) was used. Two other rabbits (rabbit No. 17 and No. 18) were used in confirmatory test. At the end of the contact time (4 hours) the dressings were removed and animals were examined for signs of erythema and oedema, and the response was evaluated at 1, 24, 48 and 72 hours afterpatches removal.

As for `Nc1ncnc2nc[nH]c12` [Adenine, reference compound], the IC50 in series [1] (human, 72 h) is over 167 µM; with B10A.4 [2] (mouse, 72 h) it was over 167 µM; in the series on B10A.4 [3] (mouse, 72 h), over 167 µM; with NIH-3T3 [4] (mouse, 72 h), over 167 µM.

`CC(C)=CCNc1nc(N(C)C)nc2c1ncn2C1CCO1` (stereo not drawn) [Compound 13] registered an MDA in the series on NIH3T3 fibroblasts of 13.1 nmol/g FW. Also, the IC50 (in [5]; with B10A.4 [6]; in the series on NIH-3T3 [7]; in the series with B10A.4 [8]) was over 167 µM in each case.

Take `CCN(CC)c1nc(NCC=C(C)C)c2ncn(C3CCO3)c2n1` (stereo not drawn) [Compound 14]: the MDA in the series with NIH3T3 fibroblasts was 11.4 nmol/g FW. For the same compound, the IC50 (in series [5]; in the series on B10A.4 [6]; with NIH-3T3 [7]; in the series with B10A.4 [8]) was over 167 µM in each case.

Turning to `CN(C)c1nc(NCc2ccco2)c2ncn(C3CCCO3)c2n1` (stereo not drawn) [Compound 30, 2-(Dimethylamino)-6-furfurylamino-9-(tetrahydrofuran-2-yl)-9H-purine], the MDA in the series with NIH3T3 fibroblasts is 12.6 nmol/g FW. The “ORAC (compound/trolox)” value in series [9] is listed as 0.292 ± 0.006. The IC50 at 72 h in series [10], in series [11] and in [12] was over 167 µM each time.

On to `Cc1ccc(CNc2nc(N(C)C)nc3c2ncn3C2CCCO2)o1` (stereo not drawn) [Compound 46, 2-(Dimethylamino)-6-[(5-methylfurfuryl)amino]-9-(tetrahydrofuran-2-yl)-9H-purine], for which, in the series with NIH3T3 fibroblasts, the MDA came out at 11.2 nmol/g FW. In series [9], the “ORAC (compound/trolox)” value is 0.14 ± 0.004. Further, the IC50 at 72 h in [10], in series [11] and in series [12] was over 167 µM throughout.

`CNc1nc(NCc2occc2OC)c2ncn(C3CCCO3)c2n1` (stereo not drawn) [Compound 49] yielded an MDA in the series on NIH3T3 fibroblasts of 12.3 nmol/g FW. Moreover, the IC50 (in series [1]; in the series on B10A.4 [2]; in the series with B10A.4 [3]; in the series on NIH-3T3 [4]) was over 167 µM in each case.

In turn, `CNc1nc(NCc2ccc(OC)cc2)c2ncn(C3CCCO3)c2n1` (stereo not drawn) [Compound 84, 2-(Methylamino)-6-[(4-methoxybenzyl)amino]-9-(tetrahydrofuran-2-yl)-9H-purine] displayed an MDA in the series with NIH3T3 fibroblasts of 10.6 nmol/g FW. The IC50 at 72 h in [10], in series [11] and in series [12] was over 167 µM each time.

For the compound `CCNc1nc(NCc2ccco2)c2ncn(C3CCCCO3)c2n1` (stereo not drawn) [Compound 111, 2-(ethylamino)-6-furfurylamino-9-(tetrahydro-2H-pyran-2-yl)-9H-purine], the MDA in the series on NIH3T3 fibroblasts was determined as 10.3 nmol/g FW. Also, the IC50 at 72 h in series [10], in [11] and in series [12] was over 167 µM in each case.

Turning to `CN(C)CCNc1nc(NCc2ccco2)c2ncn(C3CCCCO3)c2n1` (stereo not drawn) [Compound 116, 2-{[2-(Dimethylamino)ethyl]amino}-6-furfurylamino-9-(tetrahydro-2H-pyran-2-yl)-9H-purine], in the series with NIH3T3 fibroblasts, the MDA worked out at 9.2 nmol/g FW. For the same compound, the “ORAC (compound/trolox)” value in series [9] amounted to 2.475 ± 0.086. For the same compound, the IC50 at 72 h in series [10], in series [11] and in series [12] was over 167 µM throughout.

Take `Cc1ccc(CNc2nc(NCCN(C)C)nc3c2ncn3C2CCCCO2)o1` (stereo not drawn) [Compound 132]: the MDA in the series with NIH3T3 fibroblasts is 10.7 nmol/g FW. The IC50 (in [5]; in the series on B10A.4 [6]; in the series on NIH-3T3 [7]) was over 167 µM in each case.

On to `c1coc(CNc2ncnc3nc[nH]c23)c1` [Kinetin, N^6-furfuryladenine, reference compound], for which, in the series with NIH3T3 fibroblasts, the MDA amounted to 14.2 nmol/g FW. Further, the IC50 was 148 µM in [5], over 167 µM in the series with B10A.4 [6], 133 µM in the series with NIH-3T3 [7] and 164 µM in the series with B10A.4 [8].

For the compound `CC(C)=CCNc1ncnc2nc[nH]c12` [isopentenyladenine, reference compound], the IC50 in series [1] was 134 µM; in the series on B10A.4 [2], 147 µM; in the series on B10A.4 [3], over 167 µM; in the series on NIH-3T3 [4], 124 µM.

Turning to `CCCCCCCCCCCCOS(=O)(=O)O` [lauryl sulfate, reference compound], in [13], the “Primary Irritation Index” value stood at 1.67.

For `Oc1cccc(CNc2ncnc3nc[nH]c23)c1` [meta-topolin, reference compound], the IC50 was 166 µM in [1], at least 178 µM in the series with B10A.4 [2], over 167 µM in the series with B10A.4 [3] and at least 167 µM in the series with NIH-3T3 [4].
